Converted amounts (≈) assume the structure as drawn.
What was measured:
[1] = test system: Trichophyton mentagrophytes; experiment: Antimycotic in-vivo activity (local) in experimental guinea pig trichophytosis; design: species or system Meerschweinchen; key: +++++: sehr gute Wirkung = keine Infektionszeichen am 12.-15.Tag p.i.; ++++: gute Wirkung = geringe Rötung, vereinzelt Schuppen; +++: Wirkung = Rötung, Schuppung, ohne Haarausfall; ++: schwache Wirkung = Rötung, Schuppung, Haarausfall; +: Spur Wirkung = flächiger Haarausfall, entzündliche Hautreaktion
[2] = test system: Aspergillus fumigatus; experiment: Antimycotic in-vitro activity, serial dilution test (MIC); format: cell-based; conditions: Sabouraud's milieu d'epreuve, 20°C, 96 h, inoculum 5 x 10^4 Keime/ml, read-out: MHK-Werte in γ/ml Nährmedium Aspergillus fumigatus
Protocol: (§1) Versuchsbeschreibung: • Die in-vitro-Prüfungen wurden im Reihenverdünnungstest mit Keiminokula von durchschnittlich 5 x 10^4 Keimen/ml Substrat durchgeführt. Als Nährmedium dienten • a) für Dermatophyten und Schimmelpilze: Sabouraud's milieu d'epreuve • b) für Hefen: • Fleischextrakt-Traubenzucker-Bouillon.
(§2) Die Bebrütungstemperatur betrug 20°C, die Bebrütungsdauer lag bei 24 bis 96 Stunden bei Hefen und 96 Stunden bei Dermatophyten und Schimmelpilzen.

[3] = test system: Torulopsis glabrata; experiment: as above; format: cell-based; conditions: Nakaseomyces glabratus; Fleischextrakt-Traubenzucker-Bouillon, 20°C, 24 to 96 h, inoculum 5 x 10^4 Keime/ml; read-out: MHK-Werte in γ/ml Nährmedium Torulopsis glabrata
Protocol: as §1, §2

[4] = test system: Microsporum canis; experiment: as above; format: cell-based; conditions: Sabouraud's milieu d'epreuve, 20°C, 96 h, inoculum 5 x 10^4 Keime/ml, read-out: MHK-Werte in γ/ml Nährmedium Microsporum canis
Protocol: as §1, §2

[5] = test system: Candida albicans; experiment: as above; format: cell-based; conditions: Fleischextrakt-Traubenzucker-Bouillon, 20°C, 24 to 96 h, inoculum 5 x 10^4 Keime/ml, read-out: MHK-Werte in γ/ml Nährmedium Candida albicans
Protocol: as §1, §2

[6] = test system: Trichophyton mentagr.; experiment: as above; format: cell-based, Trichophyton mentagrophytes; conditions: Sabouraud's milieu d'epreuve, 20°C, 96 h, inoculum 5 x 10^4 Keime/ml, read-out: MHK-Werte in γ/ml Nährmedium Trichophyton mentagr.
Protocol: as §1, §2

[7] = test system: Candida-Zellen; experiment: Antimycotic in-vivo activity (oral) in mouse candidosis; design: species or system Mäuse vom Typ SPF-CF1; key to Wirkung: +++++: sehr gute Wirkung = 90 % Überlebende am 6.Tag p.i.; ++++: gute Wirkung = 80 % Überlebende am 6.Tag p.i.; +++: Wirkung = 60 % Überlebende am 6.Tag p.i.; ++: schwache Wirkung = 40 % Überlebende am 6.Tag p.i.; +: Spur Wirkung = unter 40 % Überlebende am 6.Tag p.i.; k.W.: keine Wirkung; conditions: for Wirkung: mice infected i.v. with Candida, oral 50 - 100 mg/kg one hour before and seven hours after infection, survivors on day 6 p.i.; for Wirkung compared with known compounds (A), (B), (C) and (D): mouse candidosis, oral 50 - 100 mg/kg
Protocol: Mäuse vom Typ SPF-CF1 wurden intravenös mit 1 - 2 x 10^6 logarithmisch wachsenden Candida-Zellen, die in physiologischer Kochsalzlösung suspendiert werden, infiziert. Eine Stunde vor und sieben Sunden nach der Infektion werden die Tiere mit jeweils 50 - 100 mg/kg Körpergewicht der Präparate oral behandelt.
Unbehandelte Tiere starben 3 bis 6 Tage post infektionem. Die Überlebensrate am 6. Tag post infektionem betrug bei unbehandelten Kontrolltieren etwa 5 %.
+++++ = sehr gute Wirkung = 90 % Überlebende am 6.Tag p.i. ++++ = gute Wirkung = 80 % Überlebende am 6.Tag p.i. +++ = Wirkung = 60 % Überlebende am 6.Tag p.i. ++ = schwache Wirkung = 40 % Überlebende am 6.Tag p.i. + = Spur Wirkung = unter 40 % Überlebende am 6.Tag p.i. k.W. = keine Wirkung

[8] = local treatment, trichophytosis model
[9] = local, 1 x daily from day 3 p.i., 15 %ige Lösung in Dimethylsulfoxid:Glycerin = 1:4, infection signs day 12-15 p.i.

Row | Compound | MIC [2] | MIC [3] | MIC [4] | MIC [5] | MIC [6] | Wirkung [1, 8] | Wirkung [1, 9] | Wirkung [7] | Wirkung compared with known compounds (A), (B), (C) and (D) [7]
1 | CC(C)(CF)C(O)(CCc1ccc(Cl)cc1Cl)Cn1cncn1 (centres unmarked) [Beispiel 26] | < 1 µg/mL | 8 µg/mL (≈ 22.2 µM) | 2 µg/mL (≈ 5.55 µM) | 4 µg/mL (≈ 11.1 µM) | < 1 µg/mL | Wirkung bis gute Wirkung | +++ | +++ (Wirkung = 60 % Überlebende am 6.Tag p.i.) | bessere Wirkung
2 | C=CC(C)(C)C(O)(COc1ccc(F)cc1)Cn1cncn1 (centres unmarked) [Beispiel 24] | 4 µg/mL (≈ 13.1 µM) | 8 µg/mL (≈ 26.2 µM) | 8 µg/mL (≈ 26.2 µM) | 4 µg/mL (≈ 13.1 µM) | < 1 µg/mL |  |  | ++ (schwache Wirkung = 40 % Überlebende am 6.Tag p.i.) | bessere Wirkung
3 | CC(C)(C)C(O)(CSc1ccc(Cl)cc1)Cn1cncn1 (centres unmarked) [Beispiel 3, 2-(4-Chlorphenylthiomethyl)-3,3-dimethyl-1-(1,2,4-triazol-1-yl)-butan-2-ol] | < 1 µg/mL | 2 µg/mL (≈ 6.14 µM) | < 1 µg/mL | < 1 µg/mL | < 1 µg/mL |  |  | ++++ (gute Wirkung = 80 % Überlebende am 6.Tag p.i.) | bessere Wirkung
4 | C=CC(C)(C)C(O)(COc1ccc(F)cc1)Cn1ccnc1 (centres unmarked) [Beispiel 40] |  |  |  |  |  |  |  | ++ (schwache Wirkung = 40 % Überlebende am 6.Tag p.i.) | bessere Wirkung
5 | Cc1ccccc1OCC(O)(Cn1ccnc1)C(C)(C)C (centres unmarked) [(C), reference compound] | > 64 µg/mL | > 64 µg/mL |  | 32 µg/mL (≈ 111 µM) | 32 µg/mL (≈ 111 µM) |  |  | k.W. | 
6 | Cc1ccc(OCC(O)(Cn2cncn2)C(C)(C)CF)cc1 (centres unmarked) [Beispiel 6] | 2 µg/mL (≈ 6.51 µM) | 4 µg/mL (≈ 13 µM) | 4 µg/mL (≈ 13 µM) | < 1 µg/mL | 2 µg/mL (≈ 6.51 µM) |  |  |  | 
7 | CC(C)(CF)C(O)(CCc1ccc(Cl)cc1Cl)Cn1ccnc1 (centres unmarked) [Beispiel 38] | 16 µg/mL (≈ 44.5 µM) | 2 µg/mL (≈ 5.57 µM) | 8 µg/mL (≈ 22.3 µM) | < 1 µg/mL | 4 µg/mL (≈ 11.1 µM) |  |  | +++ (Wirkung = 60 % Überlebende am 6.Tag p.i.) | bessere Wirkung
8 | C=CC(C)(C)C(O)(COc1ccc(Cl)cc1Cl)Cn1cncn1 (centres unmarked) [Beispiel 23] | 4 µg/mL (≈ 11.2 µM) | 4 µg/mL (≈ 11.2 µM) | 8 µg/mL (≈ 22.5 µM) | < 1 µg/mL | < 1 µg/mL |  |  | + (Spur Wirkung = unter 40 % Überlebende am 6.Tag p.i.) | bessere Wirkung
9 | CC(C)(Oc1ccc(Cl)cc1Cl)C(O)(CCc1ccc(Cl)cc1)Cn1cncn1 (centres unmarked) [Beispiel 30] | 4 µg/mL (≈ 8.8 µM) | 8 µg/mL (≈ 17.6 µM) | 64 µg/mL (≈ 141 µM) | 16 µg/mL (≈ 35.2 µM) | < 1 µg/mL |  |  |  | 
10 | CC(CF)(CF)C(O)(COc1ccc(Cl)cc1)Cn1ccnc1 (centres unmarked) [Beispiel 31] |  |  |  |  |  | Wirkung bis gute Wirkung | +++ | ++++ (gute Wirkung = 80 % Überlebende am 6.Tag p.i.) | bessere Wirkung
11 | CCOCC(C)(C)C(O)(COc1ccc(Cl)cc1)Cn1cncn1 (centres unmarked) [Beispiel 18] | 4 µg/mL (≈ 11.3 µM) | 4 µg/mL (≈ 11.3 µM) | 4 µg/mL (≈ 11.3 µM) | < 1 µg/mL | < 1 µg/mL |  |  |  | 
12 | C=CC(C)(C)C(O)(COc1ccc(Cl)cc1Cl)Cn1ccnc1 (centres unmarked) [Beispiel 39] | 32 µg/mL (≈ 90.1 µM) | < 1 µg/mL | 16 µg/mL (≈ 45 µM) | 2 µg/mL (≈ 5.63 µM) | < 1 µg/mL |  |  | ++ (schwache Wirkung = 40 % Überlebende am 6.Tag p.i.) | bessere Wirkung
13 | CC(C)(COc1ccc(Cl)cc1)C(O)(CCc1ccc(Cl)cc1)Cn1cncn1 (centres unmarked) [Beispiel 29] | < 1 µg/mL | 2 µg/mL (≈ 4.6 µM) | 2 µg/mL (≈ 4.6 µM) | 16 µg/mL (≈ 36.8 µM) | < 1 µg/mL |  |  |  | 

More lines, main results first:

Row | MIC [2] | MIC [3] | MIC [4] | MIC [5] | MIC [6] | Compound | Wirkung [1, 8] | Wirkung [1, 9] | Wirkung [7] | Wirkung compared with known compounds (A), (B), (C) and (D) [7]
14 | 8 µg/mL (≈ 23.3 µM) | 16 µg/mL (≈ 46.5 µM) | 4 µg/mL (≈ 11.6 µM) | < 1 µg/mL | 2 µg/mL (≈ 5.82 µM) | CC(C)(CF)C(O)(CSc1ccccc1Cl)Cn1cncn1 (centres unmarked) [Beispiel 11] |  |  |  | 
15 | 32 µg/mL (≈ 111 µM) | > 64 µg/mL | 4 µg/mL (≈ 13.8 µM) | 32 µg/mL (≈ 111 µM) | 4 µg/mL (≈ 13.8 µM) | Cc1ccccc1OCC(O)(Cn1cncn1)C(C)(C)C (centres unmarked) [(B), reference compound] |  |  | k.W. | 
16 | 8 µg/mL (≈ 21.2 µM) | 4 µg/mL (≈ 10.6 µM) | 4 µg/mL (≈ 10.6 µM) | < 1 µg/mL | 2 µg/mL (≈ 5.3 µM) | CC(CF)(CF)C(O)(CCc1ccc(Cl)cc1Cl)Cn1ccnc1 (centres unmarked) [Beispiel 36] |  |  | ++++ (gute Wirkung = 80 % Überlebende am 6.Tag p.i.) | bessere Wirkung
17 | 2 µg/mL (≈ 5.83 µM) | 2 µg/mL (≈ 5.83 µM) | 16 µg/mL (≈ 46.7 µM) | 4 µg/mL (≈ 11.7 µM) | 4 µg/mL (≈ 11.7 µM) | CC(CF)(CF)C(O)(CCc1ccc(Cl)cc1)Cn1ccnc1 (centres unmarked) [Beispiel 37] |  |  | ++++ (gute Wirkung = 80 % Überlebende am 6.Tag p.i.) | bessere Wirkung
18 | 32 µg/mL (≈ 104 µM) | 2 µg/mL (≈ 6.48 µM) | 16 µg/mL (≈ 51.8 µM) | < 1 µg/mL | 8 µg/mL (≈ 25.9 µM) | CC(C)(C)C(O)(COc1ccc(Cl)cc1)Cn1ccnc1 (centres unmarked) [(A), reference compound] |  |  | k.W. | 
19 | < 1 µg/mL | < 1 µg/mL | < 1 µg/mL | 4 µg/mL (≈ 8.55 µM) | < 1 µg/mL | CC(C)(COc1ccc(Cl)cc1Cl)C(O)(CCc1ccc(Cl)cc1)Cn1ccnc1 (centres unmarked) [Beispiel 35] |  |  |  | 
20 | 8 µg/mL (≈ 23.5 µM) | 8 µg/mL (≈ 23.5 µM) | 4 µg/mL (≈ 11.8 µM) | < 1 µg/mL | 2 µg/mL (≈ 5.89 µM) | COCC(C)(C)C(O)(COc1ccc(Cl)cc1)Cn1cncn1 (centres unmarked) [Beispiel 2] |  |  |  | 
21 | < 1 µg/mL | < 1 µg/mL | 2 µg/mL (≈ 5.29 µM) | < 1 µg/mL | < 1 µg/mL | CC(C)(CF)C(O)(CSc1ccc(Cl)c(Cl)c1)Cn1cncn1 (centres unmarked) [Beispiel 12] |  |  | ++++ (gute Wirkung = 80 % Überlebende am 6.Tag p.i.) | bessere Wirkung
22 | < 1 µg/mL | < 1 µg/mL | < 1 µg/mL | < 1 µg/mL | < 1 µg/mL | CC(C)(Oc1ccc(Cl)cc1)C(O)(CCc1ccc(Cl)cc1)Cn1ccnc1 (centres unmarked) [Beispiel 34] |  |  |  | 
23 | 32 µg/mL (≈ 99 µM) | 2 µg/mL (≈ 6.18 µM) | 8 µg/mL (≈ 24.7 µM) | < 1 µg/mL | 2 µg/mL (≈ 6.18 µM) | COCC(C)(C)C(O)(COc1ccc(F)cc1)Cn1cncn1 (centres unmarked) [Beispiel 20] |  |  |  | 
24 | < 1 µg/mL | 32 µg/mL (≈ 88 µM) | < 1 µg/mL | < 1 µg/mL | < 1 µg/mL | C=CC(C)(C)C(O)(COc1ccc(-c2ccccc2)cc1)Cn1cncn1 (centres unmarked) [Beispiel 4, 4-(4-Biphenylyloxymethyl)-3,3-dimethyl-4-hydroxy-5-(1,2,4-triazol-1-yl)-1-penten] |  |  | +++++ (sehr gute Wirkung = 90 % Überlebende am 6.Tag p.i.) | bessere Wirkung
25 | 4 µg/mL (≈ 11.3 µM) | 4 µg/mL (≈ 11.3 µM) | < 1 µg/mL | < 1 µg/mL | < 1 µg/mL | COCC(C)(C)C(O)(COc1ccc(Cl)cc1C)Cn1cncn1 (centres unmarked) [Beispiel 17] |  |  |  | 
26 | 8 µg/mL (≈ 21.4 µM) | 2 µg/mL (≈ 5.34 µM) | 2 µg/mL (≈ 5.34 µM) | < 1 µg/mL | < 1 µg/mL | COCC(C)(C)C(O)(COc1ccc(Cl)cc1Cl)Cn1cncn1 (centres unmarked) [Beispiel 16] |  |  |  | 
27 | < 1 µg/mL | 2 µg/mL (≈ 4.58 µM) | 2 µg/mL (≈ 4.58 µM) | 8 µg/mL (≈ 18.3 µM) | < 1 µg/mL | CC(C)(COc1ccc(Cl)cc1)C(O)(COc1ccc(Cl)cc1)Cn1cncn1 (centres unmarked) [Beispiel 19] |  |  |  | 
28 | 64 µg/mL (≈ 223 µM) | 16 µg/mL (≈ 55.9 µM) | 16 µg/mL (≈ 55.9 µM) | 2 µg/mL (≈ 6.98 µM) | 8 µg/mL (≈ 27.9 µM) | Cc1ccccc1CCC(O)(Cn1ccnc1)C(C)(C)C (centres unmarked) [(D), reference compound] |  |  | k.W. | 
